Experimental data as given in patent US12421220B2, “Bicyclic-substituted glutarimide cereblon binders” (C4 THERAPEUTICS, INC., priority 2022, dated 2025).

target: CRBN-DDB1 (CRBN_DDB1.3) (Homo sapiens, UniProt Q96SW2); assay: Fluorescence polarization (FP) binding assay, CRBN_DDB1.3 construct; conditions: 0.05% PA, 0.1% BSA; benzomorpholine binders; read-out: FP CRBN_DDB1.3 0.05% PA, 0.1% BSA Ka nM
Experimental: Example 2: Fluorescence Polarization (FP) Assay for Screening Compound Ligand Binders of CRBN-DDB1
Measuring compound ligand binding to CRBN-DDB 1 was carried out using an established sensitive and quantitative in vitro fluorescence polarization (FP) based binding assay. (See, I. J. Enyedy et al, J. Med. Chem., 44: […] [2001]). Compounds were dispensed from serially diluted DMSO stock into black 384-well compatible fluorescence polarization plates using an Echo acoustic dispenser. Compound binding to CRBN-DDB 1 was measured by displacement of an established CRBN binding ligand conjugated to an Alexa Fluor® dye (probe). A […] mixture containing 10nM CRBN-DDB1 and 5 nM probe in 50 mM Hepes, pH 7.4, 200 mM NaCl, 1% DMSO, 0.1% BSA and 0.05% o pluronic acid-127 acid was added to wells containing compound and incubated at room temperature for 60 min. Matching control wells excluding CRBN-DDB 1 were used to correct for background fluorescence. Plates were read on an Envision plate reader with appropriate FP filter sets. The corrected S (perpendicular) and P (parallel) values were used to calculate fluorescence polarization (FP) with the following equation: FP=1000*(S−G*P)/(S+G*P).
The fractional amount of bound probe (FB) to CRBN-DDB 1 as a function of compound concentration was fitted according to Wang; FEBS Letters 360, (1995), 111-114 to obtain fits for parameter offsets and binding constant (KA) of competitor compound.

CRBN-DDB1 (CRBN_DDB1.3), sequence (Q96SW2 318-426 limits assumed): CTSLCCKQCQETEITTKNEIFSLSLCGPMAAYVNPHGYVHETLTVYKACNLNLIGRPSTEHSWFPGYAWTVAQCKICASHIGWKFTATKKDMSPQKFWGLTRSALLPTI

| Kd | SMILES |
| --- | --- |
| ≤ 100000 nM | CN(C(=O)OC(C)(C)C)C1CCN(c2cccc3c2OCCN3[C@H]2CCC(=O)NC2=O)CC1 (single isomer, unassigned) [Compound 16-6] |
| ≤ 1000 nM | CN(C(=O)OC(C)(C)C)C1CCN(c2cccc3c2OCCN3[C@@H]2CCC(=O)NC2=O)CC1 (single isomer, unassigned) [Compound 16-7] |
| ≤ 100000 nM | CC(C)(C)OC(=O)CN1CCC(c2cccc3c2OCCN3[C@H]2CCC(=O)NC2=O)CC1 (single isomer, unassigned) [Compound 24-3] |
| ≤ 100000 nM | CC(C)(C)OC(=O)CN1CCC(c2cccc3c2OCCN3[C@@H]2CCC(=O)NC2=O)CC1 (single isomer, unassigned) [Compound 24-4] |
| ≤ 100000 nM | O=C1CCC(c2cccc3c2OCCN3C2CCC(=O)NC2=O)CC1 (stereo not shown) [Compound 5-14, 3-[8-(4-oxocyclohexyl)-2,3-dihydro-1,4-benzoxazin-4-yl]piperidine-2,6-dione] |
| ≤ 100000 nM | O=C1CCN(c2cccc3c2OCCN3C2CCC(=O)NC2=O)CC1 (stereo not shown) [Compound 6-12, 3-(8-(4-oxopiperidin-1-yl)-2,3-dihydro-4H-benzo[b][1,4]oxazin-4-yl)piperidine-2,6-dione] |
| ≤ 100000 nM | O=C1CCC(c2ccnc3c2OCCN3C2CCC(=O)NC2=O)CC1 (stereo not shown) [Compound 8-10, 3-(8-(4-oxocyclohexyl)-2,3-dihydro-4H-pyrido[3,2-b][1,4]oxazin-4-yl)piperidine-2,6-dione] |
| ≤ 100000 nM | O=C1CCC(N2CCOc3c(N4CCNCC4)cccc32)C(=O)N1 (stereo not shown) [Compound 10-10, 3-(8-(piperazin-1-yl)-2H-benzo[b][1,4]oxazin-4(3H)-yl)piperidine-2,6-dione] |
| ≤ 100000 nM | O=C1CCC(N2CCOc3c([C@H]4CCCNC4)cccc32)C(=O)N1 (stereo partly drawn) [Compound 13-8, 3-[8-[(3R)-3-piperidyl]-2,3-dihydro-1,4-benzoxazin-4-yl]piperidine-2,6-dione] |
| ≤ 100000 nM | O=C1CCC(N2CCOc3c([C@@H]4CCCNC4)cccc32)C(=O)N1 (stereo partly drawn) [Compound 13-11, 3-[8-[(3S)-3-piperidyl]-2,3-dihydro-1,4-benzoxazin-4-yl]piperidine-2,6-dione] |
| ≤ 100000 nM | O=C1CCC(N2CCOc3c([C@@H]4CCNC4)cccc32)C(=O)N1 (stereo partly drawn) [Compound 14-7, 3-(8-((S)-pyrrolidin-3-yl)-2H-benzo[b][1,4]oxazin-4(3H)-yl)piperidine-2,6-dione] |
| ≤ 100000 nM | CNC1CCN(c2cccc3c2O[C@H](C)CN3C2CCC(=O)NC2=O)CC1 (stereo partly drawn) [Compound 18-10, 3-[(2R)-2-methyl-8-[4-(methylamino)-1-piperidyl]-2,3-dihydro-1,4-benzoxazin-4-yl]piperidine-2,6-dione] |

same assay, conditions: 0.05% PA, 0.1% BSA; indoline binders; read-out: FP CRBN_DDB1.3 0.05% PA, 0.1% BSA ka nM

| Kd | SMILES |
| --- | --- |
| < 100000 nM | O=C1CCC(N2CCc3c(N4CCC(CCO)CC4)cccc32)C(=O)N1 (racemic) [Compound 42-4, 3-[4-[4-(2-hydroxyethyl)-1-piperidyl]indolin-1-yl]piperidine-2,6-dione] |
| < 100000 nM | CC(C)(C)OC(=O)C1CCN(Cc2cccc3c2CCN3C2CCC(=O)NC2=O)CC1 (racemic) [Compound 54-5, tert-butyl 1-[[1-(2,6-dioxo-3-piperidyl)indolin-4-yl]methyl]piperidine-4-carboxylate] |
| < 100000 nM | CC(C)(C)OC(=O)CC1(O)CCN(c2cccc3c2CCN3[C@H]2CCC(=O)NC2=O)CC1 (single isomer, unassigned) [Compound 38-6] |
| < 1000 nM | CC(C)(C)OC(=O)CC1(O)CCN(c2cccc3c2CCN3[C@@H]2CCC(=O)NC2=O)CC1 (single isomer, unassigned) [Compound 38-7] |
| < 100000 nM | CC(C)(C)OC(=O)CC1CCN(c2cccc3c2CCN3[C@H]2CCC(=O)NC2=O)CC1 (single isomer, unassigned) [Compound 39-5] |
| < 1000 nM | CC(C)(C)OC(=O)CC1CCN(c2cccc3c2CCN3[C@@H]2CCC(=O)NC2=O)CC1 (single isomer, unassigned) [Compound 39-6] |
| < 1000 nM | CC(C)(C)OC(=O)N1CCC(c2ccc3c(c2)CCN3[C@@H]2CCC(=O)NC2=O)CC1 (single isomer, unassigned) [Compound 40-5] |
| < 100000 nM | CC(C)(C)OC(=O)N1CCC(c2ccc3c(c2)CCN3[C@H]2CCC(=O)NC2=O)CC1 (single isomer, unassigned) [Compound 40-6] |
| < 100000 nM | CC(C)(C)OC(=O)C1CCN(c2cccc3c2CCN3[C@H]2CCC(=O)NC2=O)CC1 (single isomer, unassigned) [Compound 48-6] |
| < 100000 nM | CC(C)(C)OC(=O)C1CCN(c2cccc3c2CCN3[C@@H]2CCC(=O)NC2=O)CC1 (single isomer, unassigned) [Compound 48-7] |
| < 1000 nM | CC(C)(C)OC(=O)N1CCC(c2cc3c(cc2F)N([C@H]2CCC(=O)NC2=O)CC3)CC1 (single isomer, unassigned) [Compound 52-6] |
| < 100000 nM | CC(C)(C)OC(=O)N1CCC(c2cc3c(cc2F)N([C@@H]2CCC(=O)NC2=O)CC3)CC1 (single isomer, unassigned) [Compound 52-7] |
| < 1000 nM | O=C1CC[C@H](N2CCc3c(N4CCC(CO)CC4)cccc32)C(=O)N1 (single isomer, unassigned) [Compound 53-5] |
| < 100000 nM | O=C1CC[C@@H](N2CCc3c(N4CCC(CO)CC4)cccc32)C(=O)N1 (single isomer, unassigned) [Compound 53-6] |
| < 100000 nM | CC(C)(C)OC(=O)C1CCN(Cc2cccc3c2CCN3[C@H]2CCC(=O)NC2=O)CC1 (single isomer, unassigned) [Compound 54-6] |
| < 100000 nM | CC(C)(C)OC(=O)C1CCN(Cc2cccc3c2CCN3[C@@H]2CCC(=O)NC2=O)CC1 (single isomer, unassigned) [Compound 54-7] |
| < 100000 nM | CN(C(=O)OC(C)(C)C)[C@H]1CC[C@H](c2c(F)cc3c(c2F)CCN3[C@H]2CCC(=O)NC2=O)CC1 (single isomer, unassigned) [Compound 55-4] |
| < 100000 nM | CN(C(=O)OC(C)(C)C)[C@H]1CC[C@H](c2c(F)cc3c(c2F)CCN3[C@@H]2CCC(=O)NC2=O)CC1 (single isomer, unassigned) [Compound 55-5] |
| < 100000 nM | CN(C(=O)OC(C)(C)C)[C@H]1CC[C@@H](c2c(F)cc3c(c2F)CCN3[C@H]2CCC(=O)NC2=O)CC1 (single isomer, unassigned) [Compound 55-6] |
| < 100000 nM | CN(C(=O)OC(C)(C)C)[C@H]1CC[C@@H](c2c(F)cc3c(c2F)CCN3[C@@H]2CCC(=O)NC2=O)CC1 (single isomer, unassigned) [Compound 55-7] |
| < 100000 nM | CC(C)(C)OC(=O)N1CC[C@H]2CN(c3cccc4c3CCN4[C@H]3CCC(=O)NC3=O)CC[C@H]21 (single isomer, unassigned) [Compound 56-8a] |
| < 100000 nM | CC(C)(C)OC(=O)N1CC[C@@H]2CN(c3cccc4c3CCN4[C@H]3CCC(=O)NC3=O)CC[C@@H]21 (single isomer, unassigned) [Compound 56-8b] |
| < 100000 nM | CC(C)(C)OC(=O)N1CC[C@H]2CN(c3cccc4c3CCN4[C@@H]3CCC(=O)NC3=O)CC[C@H]21 (single isomer, unassigned) [Compound 56-9a] |
| < 1000 nM | CC(C)(C)OC(=O)N1CC[C@@H]2CN(c3cccc4c3CCN4[C@@H]3CCC(=O)NC3=O)CC[C@@H]21 (single isomer, unassigned) [Compound 59-9b] |

same assay, conditions: 0.05% PA, 0.1% BSA; tetrahydroquinoline binders; read-out: FP CRBN_DDB1.3 0.05% PA, 0.1% BSA ka nM

| Kd | SMILES |
| --- | --- |
| < 1000 nM | CC(C)(C)OC(=O)CN1CCC(c2cccc3c2CCCN3[C@H]2CCC(=O)NC2=O)CC1 (single isomer, unassigned) [Compound 60-3] |
| < 100000 nM | CC(C)(C)OC(=O)CN1CCC(c2cccc3c2CCCN3[C@@H]2CCC(=O)NC2=O)CC1 (single isomer, unassigned) [Compound 60-4] |
| < 100000 nM | CN(C(=O)OC(C)(C)C)C1CCN(c2cccc3c2CCCN3[C@H]2CCC(=O)NC2=O)CC1 (single isomer, unassigned) [Compound 61-5] |
| < 1000 nM | CN(C(=O)OC(C)(C)C)C1CCN(c2cccc3c2CCCN3[C@@H]2CCC(=O)NC2=O)CC1 (single isomer, unassigned) [Compound 61-6] |
| < 1000 nM | O=C1CC[C@H](N2CCCc3c(N4CCC(CCO)CC4)cccc32)C(=O)N1 (single isomer, unassigned) [Compound 66-4] |
| < 100000 nM | O=C1CC[C@@H](N2CCCc3c(N4CCC(CCO)CC4)cccc32)C(=O)N1 (single isomer, unassigned) [Compound 66-5] |
| < 100000 nM | CC(C)(C)OC(=O)N1CCC(OC2CCN(c3cccc4c3CCCN4[C@H]3CCC(=O)NC3=O)CC2)CC1 (single isomer, unassigned) [Compound 67-6] |
| < 1000 nM | CC(C)(C)OC(=O)N1CCC(OC2CCN(c3cccc4c3CCCN4[C@@H]3CCC(=O)NC3=O)CC2)CC1 (single isomer, unassigned) [Compound 67-7] |
| < 100000 nM | CC(C)(C)OC(=O)N1CCN(c2cccc3c2CCCN3[C@H]2CCC(=O)NC2=O)CC1 (single isomer, unassigned) [Compound 68-3] |
| < 1000 nM | CC(C)(C)OC(=O)N1CCN(c2cccc3c2CCCN3[C@@H]2CCC(=O)NC2=O)CC1 (single isomer, unassigned) [Compound 68-4] |
